# Data reported in PubChem BioAssay AID1963979 (Molecular Pharmacology Branch, DTP, NCI, 2024).
# System: 361931-004-R-J1-PDC multicell spheroid viability
# Test: Anticancer human tumor 361931-004-R-J1-PDC patient-derived colon adenocarcinoma cell line growth inhibition [PI3K]
# Conditions: for IC50: curve of first compound; for viability, T/C: stronger effect = lower value
# In short: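 Three cell types, namely tumor cells, endothelial cells and mesenchymal stem cells, formed each spheroid. Combinations with four PI3K inhibitors were screened at clinically achievable concentrations decreasing by half-log, and spheroid viability was recorded.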
# [1] = second compound 0.00316 µM, first compound 0.0316 µM
# [2] = second compound 0.00316 µM, first compound 0.1 µM
# [3] = second compound 0.00316 µM, first compound 0.316 µM
# [4] = second compound 0.00316 µM, first compound 1 µM
# [5] = second compound 0.00316 µM, first compound 3.16 µM
# [6] = second compound 0.00316 µM, first compound 10 µM
# [7] = second compound 0.01 µM, first compound 0.0316 µM
# [8] = second compound 0.01 µM, first compound 0.1 µM
# [9] = second compound 0.01 µM, first compound 0.316 µM
# [10] = second compound 0.01 µM, first compound 1 µM
# [11] = second compound 0.01 µM, first compound 3.16 µM
# [12] = second compound 0.01 µM, first compound 10 µM
# [13] = second compound 0.0316 µM, first compound 0.0316 µM
# [14] = second compound 0.0316 µM, first compound 0.1 µM
# [15] = second compound 0.0316 µM, first compound 0.316 µM
# [16] = second compound 0.0316 µM, first compound 1 µM
# [17] = second compound 0.0316 µM, first compound 3.16 µM
# [18] = second compound 0.0316 µM, first compound 10 µM
# [19] = second compound 0.1 µM, first compound 0.0316 µM
# [20] = second compound 0.1 µM, first compound 0.1 µM
# [21] = second compound 0.1 µM, first compound 0.316 µM
# [22] = second compound 0.1 µM, first compound 1 µM
# [23] = second compound 0.1 µM, first compound 3.16 µM
# [24] = second compound 0.1 µM, first compound 10 µM
# [25] = second compound 0.316 µM, first compound 0.0316 µM
# [26] = second compound 0.316 µM, first compound 0.1 µM
# [27] = second compound 0.316 µM, first compound 0.316 µM
# [28] = second compound 0.316 µM, first compound 1 µM
# [29] = second compound 0.316 µM, first compound 3.16 µM
# [30] = second compound 0.316 µM, first compound 10 µM
# [31] = second compound 1 µM, first compound 0.0316 µM
# [32] = second compound 1 µM, first compound 0.1 µM
# [33] = second compound 1 µM, first compound 0.316 µM
# [34] = second compound 1 µM, first compound 1 µM
# [35] = second compound 1 µM, first compound 3.16 µM
# [36] = second compound 1 µM, first compound 10 µM
# 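Further: spheroids exposed to agents for seven days before readout.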
smiles,measurement,setting,value
C#Cc1c(F)ccc2cc(O)cc(-c3ncc4c(N5CC6CCC(C5)N6)nc(OCC56CCCN5CC(F)C6)nc4c3F)c12 (stereo not given) + CC(Nc1ccc2c(c1)OCCn1cc(N3C(=O)OCC3C(F)F)nc1-2)C(N)=O,IC50,second compound 0.00316 µM,> 10 µM
same,IC50,second compound 0.01 µM,> 10 µM
same,IC50,second compound 0.0316 µM,> 10 µM
same,IC50,second compound 0.1 µM,> 10 µM
same,IC50,second compound 0.316 µM,> 10 µM
same,IC50,second compound 1 µM,1.76 µM
same,"viability, T/C",[1],99.7%
same,"viability, T/C",[2],108%
same,"viability, T/C",[3],93.5%
same,"viability, T/C",[4],100%
same,"viability, T/C",[5],89.6%
same,"viability, T/C",[6],62.3%
same,"viability, T/C",[7],101%
same,"viability, T/C",[8],104%
same,"viability, T/C",[9],81%
same,"viability, T/C",[10],92.1%
same,"viability, T/C",[11],75.3%
same,"viability, T/C",[12],71.3%
same,"viability, T/C",[13],101%
same,"viability, T/C",[14],100%
same,"viability, T/C",[15],106%
same,"viability, T/C",[16],81.3%
same,"viability, T/C",[17],84.3%
same,"viability, T/C",[18],55.9%
same,"viability, T/C",[19],93.8%
same,"viability, T/C",[20],94.2%
same,"viability, T/C",[21],76%
same,"viability, T/C",[22],75%
same,"viability, T/C",[23],68.5%
same,"viability, T/C",[24],53.4%
same,"viability, T/C",[25],86.6%
same,"viability, T/C",[26],86%
same,"viability, T/C",[27],68.2%
same,"viability, T/C",[28],55.2%
same,"viability, T/C",[29],57.1%
same,"viability, T/C",[30],50%
same,"viability, T/C",[31],78.7%
same,"viability, T/C",[32],71.2%
same,"viability, T/C",[33],64.6%
same,"viability, T/C",[34],53.4%
same,"viability, T/C",[35],46.2%
same,"viability, T/C",[36],35.1%
C=CC(=O)N1CCN(c2nc(=O)n(-c3c(C)ccnc3C(C)C)c3nc(-c4c(O)cccc4F)c(F)cc23)C(C)C1 (stereo not given) + CC(Nc1ccc2c(c1)OCCn1cc(N3C(=O)OCC3C(F)F)nc1-2)C(N)=O,IC50,second compound 0.00316 µM,> 10 µM
same,IC50,second compound 0.01 µM,> 10 µM
same,IC50,second compound 0.0316 µM,> 10 µM
same,IC50,second compound 0.1 µM,> 10 µM
same,IC50,second compound 0.316 µM,> 10 µM
same,IC50,second compound 1 µM,> 10 µM
same,"viability, T/C",[1],99.7%
same,"viability, T/C",[2],103%
same,"viability, T/C",[3],101%
same,"viability, T/C",[4],92.7%
same,"viability, T/C",[5],99.8%
same,"viability, T/C",[6],81.2%
same,"viability, T/C",[7],107%
same,"viability, T/C",[8],100%
same,"viability, T/C",[9],99.5%
same,"viability, T/C",[10],99.5%
same,"viability, T/C",[11],106%
same,"viability, T/C",[12],89.8%
same,"viability, T/C",[13],104%
same,"viability, T/C",[14],103%
same,"viability, T/C",[15],99.2%
same,"viability, T/C",[16],97.5%
same,"viability, T/C",[17],97%
same,"viability, T/C",[18],76.2%
same,"viability, T/C",[19],97.4%
same,"viability, T/C",[20],91.6%
same,"viability, T/C",[21],96.9%
same,"viability, T/C",[22],101%
same,"viability, T/C",[23],93.5%
same,"viability, T/C",[24],72.2%
same,"viability, T/C",[25],88.7%
same,"viability, T/C",[26],84.7%
same,"viability, T/C",[27],81.6%
same,"viability, T/C",[28],89.4%
same,"viability, T/C",[29],86%
same,"viability, T/C",[30],66%
same,"viability, T/C",[31],75.5%
same,"viability, T/C",[32],78.2%
same,"viability, T/C",[33],80%
same,"viability, T/C",[34],80.1%
same,"viability, T/C",[35],86.7%
same,"viability, T/C",[36],59.4%
CC(Cn1ccc(-c2ccc(C#N)c(Cl)c2)n1)NC(=O)c1cc(C(C)O)[nH]n1 (stereo not given) + CC(Nc1ccc2c(c1)OCCn1cc(N3C(=O)OCC3C(F)F)nc1-2)C(N)=O,IC50,second compound 0.00316 µM,> 10 µM
same,IC50,second compound 0.01 µM,> 10 µM
same,IC50,second compound 0.0316 µM,> 10 µM
same,IC50,second compound 0.1 µM,> 10 µM
same,IC50,second compound 0.316 µM,> 10 µM
same,IC50,second compound 1 µM,> 10 µM
same,"viability, T/C",[1],103%
same,"viability, T/C",[2],106%
same,"viability, T/C",[3],109%
same,"viability, T/C",[4],110%
same,"viability, T/C",[5],92.2%
same,"viability, T/C",[6],102%
same,"viability, T/C",[7],98.3%
same,"viability, T/C",[8],113%
same,"viability, T/C",[9],102%
same,"viability, T/C",[10],93.7%
same,"viability, T/C",[11],110%
same,"viability, T/C",[12],98.6%
same,"viability, T/C",[13],102%
same,"viability, T/C",[14],103%
same,"viability, T/C",[15],105%
same,"viability, T/C",[16],111%
same,"viability, T/C",[17],104%
same,"viability, T/C",[18],90.3%
same,"viability, T/C",[19],96%
same,"viability, T/C",[20],99.2%
same,"viability, T/C",[21],93.5%
same,"viability, T/C",[22],97.5%
same,"viability, T/C",[23],79.3%
same,"viability, T/C",[24],72%
same,"viability, T/C",[25],97.8%
same,"viability, T/C",[26],92.1%
same,"viability, T/C",[27],98.8%
same,"viability, T/C",[28],93.9%
same,"viability, T/C",[29],86.1%
same,"viability, T/C",[30],86.8%
same,"viability, T/C",[31],82.2%
same,"viability, T/C",[32],75.9%
same,"viability, T/C",[33],80.2%
same,"viability, T/C",[34],85.8%
same,"viability, T/C",[35],70.6%
same,"viability, T/C",[36],57.5%
CC1(C)CCC(Nc2ncc(C(F)(F)F)c(-c3c[nH]c4c(P(C)(C)=O)c(C#N)ccc34)n2)CN1 (stereo not given) + CC(Nc1ccc2c(c1)OCCn1cc(N3C(=O)OCC3C(F)F)nc1-2)C(N)=O,IC50,second compound 0.00316 µM,4.25 µM
same,IC50,second compound 0.01 µM,4.37 µM
same,IC50,second compound 0.0316 µM,3.95 µM
same,IC50,second compound 0.1 µM,3.55 µM
same,IC50,second compound 0.316 µM,3.63 µM
same,IC50,second compound 1 µM,2.06 µM
same,"viability, T/C",[1],72.1%
same,"viability, T/C",[2],78.7%
same,"viability, T/C",[3],76.4%
same,"viability, T/C",[4],72.6%
same,"viability, T/C",[5],66.1%
same,"viability, T/C",[6],3.82%
same,"viability, T/C",[7],84.2%
same,"viability, T/C",[8],79.8%
same,"viability, T/C",[9],75%
same,"viability, T/C",[10],77.9%
same,"viability, T/C",[11],67.8%
same,"viability, T/C",[12],4.66%
same,"viability, T/C",[13],78.7%
same,"viability, T/C",[14],69.8%
same,"viability, T/C",[15],70.8%
same,"viability, T/C",[16],67.1%
same,"viability, T/C",[17],62.2%
same,"viability, T/C",[18],3.26%
same,"viability, T/C",[19],84.2%
same,"viability, T/C",[20],72.3%
same,"viability, T/C",[21],64.9%
same,"viability, T/C",[22],69.5%
same,"viability, T/C",[23],57%
same,"viability, T/C",[24],3.49%
same,"viability, T/C",[25],66.6%
same,"viability, T/C",[26],64.2%
same,"viability, T/C",[27],61.1%
same,"viability, T/C",[28],68.4%
same,"viability, T/C",[29],55.5%
same,"viability, T/C",[30],3.54%
same,"viability, T/C",[31],64.5%
same,"viability, T/C",[32],52.5%
same,"viability, T/C",[33],56.4%
same,"viability, T/C",[34],56.7%
same,"viability, T/C",[35],46.2%
same,"viability, T/C",[36],3.28%
Cn1nccc1Nc1nccc(-c2ccn(C(CO)c3ccc(Cl)c(F)c3)c(=O)c2)n1 (stereo not given) + CC(Nc1ccc2c(c1)OCCn1cc(N3C(=O)OCC3C(F)F)nc1-2)C(N)=O,IC50,second compound 0.00316 µM,8.69 µM
same,IC50,second compound 0.01 µM,7.8 µM
same,IC50,second compound 0.0316 µM,6.08 µM
same,IC50,second compound 0.1 µM,3.1 µM
same,IC50,second compound 0.316 µM,2.31 µM
same,IC50,second compound 1 µM,1.09 µM
same,"viability, T/C",[1],103%
same,"viability, T/C",[2],96.7%
same,"viability, T/C",[3],92.7%
same,"viability, T/C",[4],88.8%
same,"viability, T/C",[5],76.6%
same,"viability, T/C",[6],45.6%
same,"viability, T/C",[7],120%
same,"viability, T/C",[8],105%
same,"viability, T/C",[9],93.9%
same,"viability, T/C",[10],84.1%
same,"viability, T/C",[11],76.5%
same,"viability, T/C",[12],41.4%
same,"viability, T/C",[13],106%
same,"viability, T/C",[14],93%
same,"viability, T/C",[15],85.8%
same,"viability, T/C",[16],82.5%
same,"viability, T/C",[17],70.6%
same,"viability, T/C",[18],36%
same,"viability, T/C",[19],97.6%
same,"viability, T/C",[20],97.8%
same,"viability, T/C",[21],89.3%
same,"viability, T/C",[22],71.9%
same,"viability, T/C",[23],50.5%
same,"viability, T/C",[24],25.5%
same,"viability, T/C",[25],95.3%
same,"viability, T/C",[26],86.5%
same,"viability, T/C",[27],77.8%
same,"viability, T/C",[28],72.9%
same,"viability, T/C",[29],40.7%
same,"viability, T/C",[30],13.2%
same,"viability, T/C",[31],69.8%
same,"viability, T/C",[32],83.3%
same,"viability, T/C",[33],70%
same,"viability, T/C",[34],52.1%
same,"viability, T/C",[35],22.8%
same,"viability, T/C",[36],9.78%
